Assay [1] has as its system Puccinia triticina; synonym: Puccinia recondita f. sp. tritici (PUCCRT). Briefly: Wheat brown rust (PUCCRT) whole-plant fungicidal test. The conditions noted are these: topical, low volume (track spray) application, 121.5 g/H. Format: in vivo.
Assay [2] concerns Phakopsora pachyrhizi (PHAKPA). As to the kind of experiment: Asian soybean rust (PHAKPA) whole-plant fungicidal test.
The test system of assay [3] is Blumeria graminis f. sp. hordei; synonym: Erysiphe graminis f. sp. hordei (ERYSGH). Briefly: Barley powdery mildew (ERYSGH) whole-plant fungicidal test. It counts as in vivo. The following applies: 1 Day Protectant. The method, then: (§1) All fungicides were evaluated using the aforementioned method for their activity vs. all target diseases, unless stated otherwise. Wheat leaf blotch and brown rust activity were also evaluated using track spray applications, in which case the fungicides were formulated as EC formulations, containing 0.1% Trycol 5941 in the spray solutions. Wheat plants (variety Yuma) were grown from seed in a greenhouse in 50% mineral soil/50% soil-less Metro mix until the first leaf was fully emerged, with 7-10 seedlings per pot. These plants were inoculated with an aqueous spore suspension of Septoria tritici either prior to or after fungicide treatments. After inoculation the plants were kept in 100% relative humidity (one day in a dark dew chamber followed by two to three days in a lighted dew chamber at 20° C.) to permit spores to germinate and infect the leaf. The plants were then transferred to a greenhouse set at 20° C. for disease to develop. When disease symptoms were fully expressed on the 1st leaves of untreated plants, infection levels were assessed on a scale of 0 to 100 percent disease severity. Percent disease control was calculated using the ratio of disease severity on treated plants relative to untreated plants. Barley seedlings (variety Harrington) were propagated in soil-less Metro mix, with each pot having 8 to 12 plants, and used in the test when first leaf was fully emerged. […]

Assay [4] has as its system Rhyncosporium secalis (RHYNSE). As to the kind of experiment: Barley scald (RHYNSE) whole-plant fungicidal test. It counts as in vivo. The following applies: 1 Day Protectant. How it is done:
as §1

Consider one molecule from patent publication US20150322051A1, “Macrocyclic picolinamides as fungicides” (Dow AgroSciences LLC, priority 2014, published 2015).

Like-named read-outs stand apart in the source and are kept apart here. Some results are limits rather than exact numbers.

Regarding `CCCC[C@@H]1[C@@H](Cc2ccc(C(F)(F)F)cc2)CCC[C@H](NC(=O)c2nccc(OC)c2OCOC(C)=O)C(=O)O[C@H]1C` [Compound 3], the pest or weed control at 121.5 g/ha in assay [1] (24 h, 1 Day Protectant, read-out: Low Volume activity at 121.5 g/H PUCCRT 1DP (% disease control rating)) was over 70%; in assay [1] (72 h, 3 Day Curative, read-out: Low Volume activity at 121.5 g/H PUCCRT 3DC (% disease control rating)) it was under 70%. Besides, the “Disease Control at 25 ppm PHAKPA 1DP” value in assay [2] (1 Day Protectant) is “B (≦70)”. Moreover, the “Disease Control at 25 ppm PHAKPA 3DC” value in assay [2] (3 Day Curative) is “B (≦70)”. For the same molecule, in assay [3], the “Disease Control at 100 ppm ERYSGH 1DP” value is listed as “A (>70)”. Moreover, the “Disease Control at 100 ppm RHYNSE 1DP” value in assay [4] is reported as “B (≦70)”.
